Measurements published in US9011853B2, “B7-H4 fusion proteins and methods of use thereof” (Amplimmune, Inc., priority 2009, dated 2015).

How the values were obtained:
[1] = test system: CTLA4KD/BDC2.5/NOD mice; assay: Autoimmune diabetes in CTLA4KD/BDC2.5/NOD mice; assay type: in vivo, mouse
Protocol: CTLA4 KD/NOD mice (Chen, et al., PNAS (2006)) were bred with BDC2.5 TCR transgenic mice (Katz, et al., Cell, 74(6):1089-100 (1993)). Both female and male mice at age of 11 weeks were randomly assigned into experimental groups: vehicle (3 mice), and B7-H4-Ig (5 mice). Mice were treated with B7-H4-Ig 3 times per week for 4 weeks (15 mg/kg, per i.p. injection), and monitored 3 times per week for glucose content in the urine first with Diastix. […] Diabetes was determined when blood glucose reached ≧600 mg/dL.

[2] = test system: DBA/1J mice; assay: CIA therapeutic model, arthritis score; assay type: in vivo, mouse; details: 300 μg IP 3 times a week for 4 weeks from CII rechallenge (day 21); days 38 and beyond; vs vehicle (FIG. 5)
Protocol: FIG. 4 outlines a brief experimental design of the CIA therapeutic study. DBA/1J mice were first immunized with chicken CII emulsified in CFA. Twenty one days later, the mice were rechallenged with CII emulsified in IFA and randomized into 2 groups. Group 1 (n=10) were IP injected with 300 μg of B7-H4-Ig, 3 times a week for 4 weeks. Group 2 (n=10) were injected with vehicle. Mouse paws/joints were monitored and scored 3 times a week.

[3] = test system: SJL mice; assay: Delayed-type hypersensitivity (DTH) responses, 24 hr ear swelling assay in R-EAE mice; assay type: in vivo, mouse; details: given from Day 0, 5 injections, both 3 mg/kg (60 μg) and 15 mg/kg (300 μg); ear challenge Day 10 (FIG. 39)
Protocol: DTH responses were quantitated using a 24 hr ear swelling assay as previously described. Pre-challenge ear thickness was determined using a Mitutoyo model 7326 engineer's micrometer (Schlesinger's Tools, Brooklyn, N.Y.). Immediately thereafter, DTH responses were elicited by injecting 10 μg of peptide in 10 μL of PBS into the dorsal surface of the ear using a 100 μL Hamilton syringe fitted with a 30 gauge needle. The increase in ear thickness over pre-challenge measurements was determined 24 hr after ear challenge. Results are expressed in units of 10^−4 inches±SEM. […] Significance of ear swelling in murine B7-H4-Ig treated mice over Control IgG injected mice was assessed by the Student's t test.
To determine the effect of B7-H4-Ig on blocking CD4^+ T cell mediated activity specific for the primary myelin-derived epitope PLP139-151 and epitope spreading, peptide-specific responses in vivo via DTH on all 4 treatment groups were analyzed. Mice were ear challenged with 10 μg of the indicated peptides on Day 50, and swelling was measured 24 h later.
To clarify the effect of B7-H4-Ig on the EAE acute phase, a 2nd in vivo experiment was conducted in the PLP139-151 induced MAE model. […] Mice were ear challenged with 10 μg of PLP139-151 on Day 10, and swelling was measured 24 h later. […]

[4] = test system: CD4^+CD62L^+ naïve T cells; assay: In vitro induction of iTreg cells, FACS for FoxP3/CD25; assay type: cell-based, mouse; details: SJL naïve T cells, 10 ng/mL TGF-β and 50 U/mL IL-2; 0, 1, 5 or 10 μg/mL (control IgG 10 μg/ml)
Protocol: CD4^+CD62L^+ naïve T cells were first labeled with CFSE (5 μM) for 10 min at room temperature. The dye was quenched by the addition of 0.5 volumes of ice-cold fetal calf serum. The cells were incubated on ice for 5 min followed by centrifugation to collect the cell pellet. The cells were washed 2 more times in HL-1 culture media. The cells were then cultured in the presence of TGF-β (10 ng/mL) and IL-2 (10, 50, 100 U/mL) for 3 days before intracellular staining with anti-FoxP3 APC. FACS analysis was conducted to detect the FoxP3^+, in vitro expanded iTreg cells.
Therefore, it was next examined if B7-H4-Ig treatment of naïve CD4^+CD62L^+ T cells in the presence of inducible Treg (iTreg) cell-promoting conditions would results in an increase in the numbers of CD4^+CD25^+FoxP3^+ iTreg cells. First the in vitro iTreg induction culture conditions were optimized to allow for experimental conditions to assess what additional effect, if any, B7-H4-Ig has on iTreg induction. CD4^+ T cells were isolated from female SJL mice. Purified mouse CD4^+CD62L^+ T cells were first labeled with CSFE and induced to iTreg cells in the presence of TGF-β (10 ng/mL) and IL-2 at concentrations of 0, 50 or 100 U/mL. FACS analysis was performed 3 days later to detect FoxP3 expression and CFSE content. A FoxP3 positive and CFSE diluted cell population was detected when using 100 U/mL of IL-2 for iTreg differentiation. […]

[5] = test system: CTLA4 KD/NOD mice; assay: Autoimmune diabetes in CTLA4 KD/NOD mice; assay type: in vivo, mouse; details: 15 mg/kg i.p. 3 times per week for 4 weeks from age 2 weeks; mice 24 weeks old (22 weeks post treatment) (FIG. 49)
Protocol: Both female and male CTLA4 KD/NOD mice (Chen et al., PNAS, 103(44):16400-16405 (2006)) at age of 2 weeks were randomly assigned into experimental groups: vehicle (11 mice), and B7-H4-Ig (12 mice). Mice were treated with B7-H4-Ig 3 times per week for 4 weeks (15 mg/kg, per i.p. injection), and monitored 3 times per week for glucose content in the urine first with Diastix. […] Diabetes was determined when blood glucose reached ≧600 mg/dL.

For “B7-H4-Ig: B7-H4 extracellular domain fused to Ig Fc; bare label is the human protein in Example 3, murine protein in Examples 1, 2, 5, 7-11”, the “autoimmune diabetes (blood glucose ≧600 mg/dL)” value ([1]; 15 mg/kg i.p. 3 times per week for 4 weeks from age 11 weeks (FIG. 50)) was “delayed autoimmune diabetes”, the “age until which treated mice did not develop diabetes” value ([1]; 15 mg/kg i.p. 3 times per week for 4 weeks from age 11 weeks, 10 weeks post treatment) was 21 weeks old and the overall arthritis scores [2] was “significantly lower than the ones of vehicle injected CIA mice”. The “DTH response to PLP139-151 peptide versus OVA323-339 peptide” value [3] was “significantly inhibited”, the “percentage of FoxP3+CD25+ iTregs” value [4] was “increased the percentage of FoxP3^+CD25^+ iTregs in a dose-dependent manner” and the “diabetes development (blood glucose ≧600 mg/dL)” value [5] was “did not develop diabetes”.
